The results in this text go back to PubChem BioAssay AID1645848.

SMILES strings stand for the structures. Values after ≈ are worked out from the molar mass of the structure shown. Where only a bound is given, the exact number is not on record here.

For this data set the following is noted: buffer; pH 7.4; 6.0 h; 150.0 µM.

As for `CCN(c1cc(C#CCN2CCOCC2)cc(C(=O)NCc2c(C)cc(C)[nH]c2=O)c1C)C1CCC(N(C)CCOC)CC1` (stereo not drawn), the solubility (kinetic) is greater than 89 µg/mL. With `Cc1ccc(NC2=C(c3ccc(C(F)(F)F)cc3)C(=O)c3ccccc32)cc1C` the figure was less than 1 µg/mL; with `Cc1cc(-c2nnc3n2CCCCC3)c(C)n1-c1ccc(C#N)cc1`, greater than 49 µg/mL. Then `CC(=O)c1c(C)[nH]c(C(=O)N(C)C)c1C`, with greater than 31 µg/mL; and `CC(C)Oc1cccc(-c2ccnc(N3CCC(C(N)=O)CC3)n2)c1`, with 8.28 µg/mL (≈ 24.3 µM); and `Cc1cc(C)cc(NS(=O)(=O)c2ccc3[nH]cc(C(=O)NCc4ccco4)c(=O)c3c2)c1`, with 2.87 µg/mL (≈ 6.35 µM). With `O=C(Nc1cccc(Cc2ccccc2)n1)c1ccc(-c2cccc([N+](=O)[O-])c2)o1`, the kinetic solubility stood at 2.73 µg/mL (≈ 6.84 µM). The molecule `CCc1ccccc1C(=O)N1CCc2cc(-c3nc(NC(=O)Cc4ccc5c(c4)OCO5)sc3C)ccc21` returned a solubility (kinetic) of less than 1 µg/mL. For the molecule `CCCCN1CCC[C@H]1CNC(=O)c1cc(C#N)c2ccccc2c1OC`, the kinetic solubility turned out to be 22.2 µg/mL (≈ 60.6 µM).

As for `O=C1Nc2ccccc2/C1=C\c1ccc(O)cc1`, the solubility (kinetic) was found to be 0.999 µg/mL (≈ 4.21 µM).

`CCCCCn1c(=O)[nH]c2cc(C(=O)NCCCN3CCC(C)CC3)ccc2c1=O` came in with a kinetic solubility greater than 61 µg/mL. Molecule `CC(C)(C)C1CCc2c(sc(NC(=O)c3ccncc3)c2C(N)=O)C1` (stereo not drawn) gave a solubility (kinetic) of less than 1 µg/mL. With `O=C(Nc1ccc(S(=O)(=O)Nc2nccs2)cc1)c1cc(-c2ccccc2)nc2ccccc12` the figure was 0.098 µg/mL (≈ 0.201 µM); with `COc1cc(/C=C(\C#N)c2nc3ccccc3[nH]2)ccc1OCc1ccc(F)cc1`, less than 1 µg/mL; with `O=C1C(SCCO)=C(SCCO)C(=O)c2ccccc21`, greater than 31 µg/mL. For `Nc1nc2c(s1)C(c1ccc(Br)cc1)CC(=O)N2` (stereo not drawn), the solubility (kinetic) was found to be 6.66 µg/mL (≈ 20.6 µM). With `Cc1nc(N)nc2ccccc12` the figure was greater than 24 µg/mL. Then `Cc1cnc(-c2ccccc2C(F)F)nc1NCc1ccc(-c2cccnc2)cc1`, with 1.07 µg/mL (≈ 2.66 µM). Then `Nc1cccc(CNc2ccc(S(=O)(=O)Nc3nccs3)cc2)c1O`, with 47.2 µg/mL (≈ 125 µM). In turn, `CC(C)(C)c1ccc(-c2csc(N3CCC(C(N)=O)CC3)n2)cc1` yielded a kinetic solubility of less than 1 µg/mL. `COc1c(NS(=O)(=O)c2ccc(C)cc2)cccc1C(=O)Nc1nc(-c2ccccc2)cs1` displayed a kinetic solubility of less than 1 µg/mL.

Consider `Fc1ccc(N2CCCN(CC3[C@H]4CNC[C@@H]34)CC2)cc1` (stereo partly drawn), for which the solubility (kinetic) is greater than 43 µg/mL. With `Cc1cc(-c2nnc3n2CCCCC3)c(C)n1-c1ccc(F)cc1` the figure was 35.3 µg/mL (≈ 109 µM).

Molecule `CCN(CC)c1ccc(Nc2nc(Cl)ncc2Br)cc1` returned a kinetic solubility of 4.94 µg/mL (≈ 13.9 µM).

Take `CCOC(=O)c1nn(-c2ccc(OC)cc2)c(=O)c2c(N)scc12`: the solubility (kinetic) was 5.68 µg/mL (≈ 16.5 µM). Then `CC(=O)Nc1ncc(S(=O)(=O)Nc2cnccc2C(=O)Nc2nc(-c3ccccc3)cs2)s1`, with 56.1 µg/mL (≈ 112 µM); and `COc1ccc(NC2CCCN(C(=O)CCc3ccccc3F)C2)cc1` (stereo not drawn), with 41.3 µg/mL (≈ 116 µM); and `CC(=O)c1cccc(-c2csc(N3CCC(C(N)=O)CC3)n2)c1`, with greater than 49 µg/mL.

In turn, `O=C1C2=C(Nc3ccccc3SC2c2ccco2)c2ccccc21` (stereo not drawn) returned a solubility (kinetic) of less than 1 µg/mL. For `COC(=O)c1ccnc(NC(=S)N2CCN(c3cccc(C(F)(F)F)c3)CC2)c1`, the solubility (kinetic) stood at 2.19 µg/mL (≈ 5.17 µM). In the case of `CN(C)c1cccc(-c2cnc(N3CCC(C(N)=O)CC3)nc2)c1`, the kinetic solubility stood at 34.9 µg/mL (≈ 107 µM). Regarding `CCN(CC)CCOc1ccc(Cc2ccccc2)cc1`, the solubility (kinetic) came to 8.35 µg/mL (≈ 29.5 µM). Then `N#Cc1nc(-c2cccc3ccccc23)oc1NCc1ccccc1`, with less than 1 µg/mL; and `CC(C)Oc1cccc(-c2csc(N3CCC(C(N)=O)CC3)n2)c1`, with 41.7 µg/mL (≈ 121 µM); and `O=C(Nc1ccccc1)C1CC(=O)N(c2n[nH]c3cc(Br)ccc23)C1` (stereo not drawn), with less than 1 µg/mL. With `O=C(O)C(=O)O.Oc1ccccc1NCC(O)Cn1ccc2ccccc21` (stereo not drawn) the figure was 8.51 µg/mL. With `COc1ncccc1-c1cc2c(ccn2C(C)C)c(C(=O)NCc2c(C)cc(C)[nH]c2=O)n1` the figure was 10.1 µg/mL (≈ 22.8 µM); with `COc1ccc(-n2nc(C3CCN(C(=O)Cc4ccc(F)cc4)CC3)[nH]c2=O)cc1`, greater than 61 µg/mL; with `Cc1cccc2nc(NC3=NC(c4[nH]ncc4Cl)C4=C(CCCC4=O)N3)oc12` (stereo not drawn), 1.82 µg/mL (≈ 4.6 µM).

As to `C[C@@]12O[C@@H](C[C@]1(O)CO)n1c3ccccc3c3c4c(c5c6ccccc6n2c5c31)CNC4=O`, the kinetic solubility was determined as 15.2 µg/mL (≈ 34.6 µM). Then `COc1cc(-c2nc(-c3c(C)noc3C)cc3c2cc(C)n3CCN(C)C)ccn1`, with greater than 90 µg/mL; and `CC(=O)c1c(C)[nH]c(C(=O)Nc2cccc(S(=O)(=O)N3CCOCC3)c2)c1C`, with greater than 60 µg/mL; and `COc1cccc(CNc2ccc(S(=O)(=O)Nc3nc4ccccc4s3)cc2)c1O`, with 2.08 µg/mL (≈ 4.72 µM). `NC(=O)C1CCN(c2ncc(-c3ccc4c(c3)OC(F)(F)O4)s2)CC1` gave a solubility (kinetic) of less than 1 µg/mL. As for `Cc1cnc(CNc2nc(-c3ccccc3Cl)nc3ccccc23)cn1`, the solubility (kinetic) is 41.9 µg/mL (≈ 116 µM). Then `O=C(Cc1ccc(Cl)c(Cl)c1)Nc1ccc([S+](=O)([O-])Nc2ccccn2)cc1`, with less than 1 µg/mL; and `CCOc1ccc(NC(=O)c2ccc(F)c(S(=O)(=O)N(CC)Cc3ccccc3)c2)cc1`, with less than 1 µg/mL. With `CNS(=O)(=O)c1cc(-c2nn3c(C)nnc3c3ccccc23)ccc1C` the figure was 4.84 µg/mL (≈ 13.2 µM); with `CCOc1ccc(-c2cn3c(n2)sc2cc(C(=O)NCCCN(CC)CC)ccc23)cc1`, greater than 67 µg/mL; with `CC1=C(C(=O)NC2CCCCC2)C(c2ccccc2Br)N=C(Nc2nc3ccccc3o2)N1` (stereo not drawn), less than 1 µg/mL.

Molecule `Fc1cnc(-c2ccccc2C(F)F)nc1NCc1ccc(-c2ccn[nH]2)cc1` showed a kinetic solubility of less than 1 µg/mL. With `O=C1Nc2ccccc2/C1=C\c1ccc([N+](=O)[O-])cc1` the figure was less than 1 µg/mL; with `CNc1sc(-c2cccc3ccccc23)nc1C#N`, less than 1 µg/mL; with `Cc1cccc(-n2ccc(=O)c(C(=O)Nc3ccc(S(=O)(=O)Nc4nccs4)cc3)n2)c1`, less than 1 µg/mL. With `Cc1cnc(-c2ccccc2C(C)C)nc1NCC1CCN(c2cccnc2)C1` (stereo not drawn) the figure was 7.52 µg/mL (≈ 19.4 µM); with `O=C1/C(=C\c2ccccc2)C[C@@]2(O)C3Cc4ccc(O)c5c4[C@@]2(CCN3CC2CC2)[C@H]1O5`, greater than 42 µg/mL; with `COc1cccc(CN(C)c2ccc([S+](=O)([O-])Nc3nccs3)cc2)c1O`, 2.08 µg/mL (≈ 5.13 µM). On to `O=C(O)c1ccc(Nc2nc(-c3cc4ccccc4oc3=O)cs2)cc1O`, for which the solubility (kinetic) stood at 11.7 µg/mL (≈ 30.7 µM).

`O=C(Nc1cccnc1)c1cccs1` gave a solubility (kinetic) greater than 30 µg/mL. Then `CSc1ccc(/C=C/c2nc3ccccc3n2S(=O)(=O)c2cccc(Cl)c2)cc1`, with less than 1 µg/mL; and `CN(C(=O)CNC(=O)c1cc(F)ccc1OCC(=O)Nc1ccc(I)cc1)c1ccc(F)cc1`, with less than 1 µg/mL. `Nc1ncnc2c1C(=O)N(c1ccc(C3CCC(CC(=O)O)CC3)cc1)CCO2` (stereo not drawn): the solubility (kinetic) is greater than 59 µg/mL. Then `CN([C@@H](Cc1ccc(O[S+](=O)([O-])c2cccc3cnccc23)cc1)C(=O)N1CCN(C(=O)OCc2ccccc2)CC1)[S+](=O)([O-])c1cccc2cnccc12`, with 1.26 µg/mL (≈ 1.61 µM). Turning to `CCc1cccc(C)c1Nc1c(-c2ccc(N(C)C)cc2)nc2ncccn12`, the solubility (kinetic) came to 1.88 µg/mL (≈ 5.05 µM). Then `c1ccc2c(Nc3ccc4nc[nH]c4c3)nc(-c3ccncc3)nc2c1`, with less than 1 µg/mL; and `COc1ccccc1-c1csc(N2CCC(C(N)=O)CC2)n1`, with 3.08 µg/mL (≈ 9.7 µM); and `O=S(=O)(Nc1cnc2ccccc2c1)c1ccc(NCc2ccc(Br)cc2O)cc1`, with less than 1 µg/mL. Then `COc1ccc(NC(=O)C23CC4CC(CC(C4)C2)C3)cc1[S+](=O)([O-])Nc1ccc(Br)cc1`, with less than 1 µg/mL; and `O=C(CCCN1CCC(O)(c2ccc(Cl)cc2)CC1)c1ccc(F)cc1`, with 6.42 µg/mL (≈ 17.1 µM). The molecule `C[S+](=O)([O-])c1ccc(-c2nc(C(=O)N3CCOCC3)n3ccncc23)cc1` had a solubility (kinetic) greater than 57 µg/mL. Turning to `CCOC(=O)c1c(C)c(-c2ccccc2)n(CC(=O)NCc2ccccc2)c1C`, the solubility (kinetic) was less than 1 µg/mL. With `Cc1nn(CC(=O)NCCCN2CCC(N3CCCCC3)CC2)c(=O)c2cc(-c3ccccc3)nn12` the figure was greater than 73 µg/mL; with `CC(=O)Nc1nc(-c2ccc3c(c2)CCN3C(=O)c2ccccc2C)c(C)s1`, less than 1 µg/mL. With `Cc1cc(F)ccc1-c1nc(NCCN=C(N)NC#N)nc2c1ccc(=O)n2-c1c(F)cccc1F` the figure was 39.5 µg/mL (≈ 80.2 µM); with `CC(CNC(=O)C1CCN(Cc2cc3ccccc3n2Cc2ccccc2)CC1)c1ccccc1` (stereo not drawn), 1.05 µg/mL (≈ 2.25 µM); with `NC(=O)C1CCN(c2nc(-c3ccccc3-c3ccccc3)cs2)CC1`, 30.6 µg/mL (≈ 84.3 µM).

As for `COC(=O)CNC(=O)c1nc(-c2ccc([S+](C)(=O)[O-])cc2)c2cnccn12`, the kinetic solubility is greater than 57 µg/mL.

`O=C(O)Cn1c(C(=O)Nc2nc(-c3ccccc3Cl)cs2)cc2ccccc21` returned a kinetic solubility greater than 61 µg/mL. With `CC[C@@](C)(Nc1ccnc(-c2c[nH]c3ncccc23)n1)C(=O)NCC(F)(F)F` the figure was greater than 58 µg/mL; with `Fc1cc(F)cc(Nc2nc(-c3ccncc3)nc3ccccc23)c1`, 2.59 µg/mL (≈ 7.75 µM); with `CCOC(=O)c1ccc(N2C(=O)c3n[nH]c(-c4cccs4)c3C2c2ccc(Cl)cc2Cl)cc1` (stereo not drawn), less than 1 µg/mL. Then `O=C(O)c1cnc(-c2ccc(F)cc2)nc1-c1ccncc1`, with greater than 29 µg/mL; and `CS(=O)(=O)CCNCc1ccc(-c2ccc3ncnc(Nc4ccc(OCc5cccc(F)c5)c(Cl)c4)c3c2)o1`, with less than 1 µg/mL. With `Cc1nn(-c2ccccc2)c2nc(C3CC3)cc(C(=O)Nc3ccc(F)cc3)c12` the figure was less than 1 µg/mL; with `CC1CCN(S(=O)(=O)c2ccc3c(c2)C(C)(C)C(=O)N3CC(=O)NCc2ccco2)CC1`, 34.2 µg/mL (≈ 74.4 µM). In the case of `CCc1ccc(C2N=C(N)Nc3nc4ccccc4n32)cc1` (stereo not drawn), the kinetic solubility was found to be 6.87 µg/mL (≈ 23.6 µM). As to `CN(C)C(=O)c1cc(-c2ccc(S(C)(=O)=O)cc2)c2cnn(C)c2n1`, the solubility (kinetic) was greater than 53 µg/mL. With `COc1ccc(NC(=O)CCCc2nnc3n(CCC(C)C)c(=O)c4sccc4n23)cc1Cl` the figure was less than 1 µg/mL.

What is called kinetic solubility is solubility judged after dilution from a stock solution rather than from solid.
